Experimental findings from the supplement of paper PMC10307832 are described below.

For one test, the system named is NCI-H1993. As to the kind of experiment: relative viability (nuclei count vs DMSO), 5 days (fraction); higher = more cells survive. Particulars: first compound 0.8 µM. In a few lines:
(§1)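 Dosing by pin tool came one day after lung cancer cell lines were seeded in 1536-well plates, using either one drug or a fixed anchor-drug dose plus five library-drug doses (not always all listed) in √10 steps. After 5 days, nuclei were counted on 4× images. Relative viability is treated-well nuclei count divided by vehicle-well nuclei count, and values are medians of duplicate plates.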
For `CCCCCCCCCCCC1=C(O)C(=O)C=C(O)C1=O` [Embelin] + COc1cc2c(Oc3ccc(NC(=O)C4(C(=O)Nc5ccc(F)cc5)CC4)cc3F)ccnc2cc1OCCCN1CCOCC1 [Foretinib] (partner 0.25 µM), the relative viability was 0.699.
`CCCCCCCCCCCC1=C(O)C(=O)C=C(O)C1=O` [Embelin] + CC(=O)Nc1cccc(-n2c(=O)n(C3CC3)c(=O)c3c(Nc4ccc(I)cc4F)n(C)c(=O)c(C)c32)c1 [Trametinib] (partner 0.02 µM) displayed a relative viability of 0.512.
Still for that read-out and setting: then `CCCCCCCCCCCC1=C(O)C(=O)C=C(O)C1=O` [Embelin] + CS(=O)(=O)N1CCN(Cc2cc3nc(-c4cccc5[nH]ncc45)nc(N4CCOCC4)c3s2)CC1 [Pictilisib] (partner 1 µM), with 0.733; and `CCCCCCCCCCCC1=C(O)C(=O)C=C(O)C1=O` [Embelin] + NC(=O)Nc1cc(-c2cccc(F)c2)sc1C(=O)N[C@H]1CCCNC1 [AZD7762] (partner 0.2 µM), with 0.723.
Consider `CCCCCCCCCCCC1=C(O)C(=O)C=C(O)C1=O` [Embelin] + Cc1nc(NC(=O)N2CCC[C@H]2C(N)=O)sc1-c1ccnc(C(C)(C)C(F)(F)F)c1 [Alpelisib] (partner 2 µM), for which the relative viability came out at 0.755.

Still in this test, the particulars now being: first compound 2.53 µM.
Compound `CCCCCCCCCCCC1=C(O)C(=O)C=C(O)C1=O` [Embelin] + COc1cc2c(Oc3ccc(NC(=O)C4(C(=O)Nc5ccc(F)cc5)CC4)cc3F)ccnc2cc1OCCCN1CCOCC1 [Foretinib] (partner 0.25 µM) yielded a relative viability of 0.876.
The compound `CCCCCCCCCCCC1=C(O)C(=O)C=C(O)C1=O` [Embelin] + CC(=O)Nc1cccc(-n2c(=O)n(C3CC3)c(=O)c3c(Nc4ccc(I)cc4F)n(C)c(=O)c(C)c32)c1 [Trametinib] (partner 0.02 µM) had a relative viability of 0.584.
In turn, `CCCCCCCCCCCC1=C(O)C(=O)C=C(O)C1=O` [Embelin] + CS(=O)(=O)N1CCN(Cc2cc3nc(-c4cccc5[nH]ncc45)nc(N4CCOCC4)c3s2)CC1 [Pictilisib] (partner 1 µM) came in with a relative viability of 0.776.
`CCCCCCCCCCCC1=C(O)C(=O)C=C(O)C1=O` [Embelin] + NC(=O)Nc1cc(-c2cccc(F)c2)sc1C(=O)N[C@H]1CCCNC1 [AZD7762] (partner 0.2 µM) returned a relative viability of 0.89.
The compound `CCCCCCCCCCCC1=C(O)C(=O)C=C(O)C1=O` [Embelin] + Cc1nc(NC(=O)N2CCC[C@H]2C(N)=O)sc1-c1ccnc(C(C)(C)C(F)(F)F)c1 [Alpelisib] (partner 2 µM) yielded a relative viability of 0.649.

The test is the same for the next values; noted with them: first compound 8 µM.
For `CCCCCCCCCCCC1=C(O)C(=O)C=C(O)C1=O` [Embelin] + COc1cc2c(Oc3ccc(NC(=O)C4(C(=O)Nc5ccc(F)cc5)CC4)cc3F)ccnc2cc1OCCCN1CCOCC1 [Foretinib] (partner 0.25 µM), the relative viability was 0.834.
In turn, `CCCCCCCCCCCC1=C(O)C(=O)C=C(O)C1=O` [Embelin] + CC(=O)Nc1cccc(-n2c(=O)n(C3CC3)c(=O)c3c(Nc4ccc(I)cc4F)n(C)c(=O)c(C)c32)c1 [Trametinib] (partner 0.02 µM) showed a relative viability of 0.498.
The compound `CCCCCCCCCCCC1=C(O)C(=O)C=C(O)C1=O` [Embelin] + CS(=O)(=O)N1CCN(Cc2cc3nc(-c4cccc5[nH]ncc45)nc(N4CCOCC4)c3s2)CC1 [Pictilisib] (partner 1 µM) had a relative viability of 0.803.
Still for that read-out and setting: then `CCCCCCCCCCCC1=C(O)C(=O)C=C(O)C1=O` [Embelin] + NC(=O)Nc1cc(-c2cccc(F)c2)sc1C(=O)N[C@H]1CCCNC1 [AZD7762] (partner 0.2 µM), with 0.606; and `CCCCCCCCCCCC1=C(O)C(=O)C=C(O)C1=O` [Embelin] + Cc1nc(NC(=O)N2CCC[C@H]2C(N)=O)sc1-c1ccnc(C(C)(C)C(F)(F)F)c1 [Alpelisib] (partner 2 µM), with 0.658.

A further test concerns SK-LU-1. Described as above. Conditions: first compound 0.08 µM. In a few lines:
as §1
In the case of `CCCCCCCCCCCC1=C(O)C(=O)C=C(O)C1=O` [Embelin] + COc1cc2c(Oc3ccc(NC(=O)C4(C(=O)Nc5ccc(F)cc5)CC4)cc3F)ccnc2cc1OCCCN1CCOCC1 [Foretinib] (partner 0.25 µM), the relative viability was 0.953.
Still for that read-out and setting: then `CCCCCCCCCCCC1=C(O)C(=O)C=C(O)C1=O` [Embelin] + CC(=O)Nc1cccc(-n2c(=O)n(C3CC3)c(=O)c3c(Nc4ccc(I)cc4F)n(C)c(=O)c(C)c32)c1 [Trametinib] (partner 0.02 µM), with 0.505.
Same read-out and setting: then `CCCCCCCCCCCC1=C(O)C(=O)C=C(O)C1=O` [Embelin] + CS(=O)(=O)N1CCN(Cc2cc3nc(-c4cccc5[nH]ncc45)nc(N4CCOCC4)c3s2)CC1 [Pictilisib] (partner 1 µM), with 0.676; and `CCCCCCCCCCCC1=C(O)C(=O)C=C(O)C1=O` [Embelin] + Cc1nc(NC(=O)N2CCC[C@H]2C(N)=O)sc1-c1ccnc(C(C)(C)C(F)(F)F)c1 [Alpelisib] (partner 2 µM), with 1.29.

Staying with this test, now noted: first compound 0.8 µM.
`CCCCCCCCCCCC1=C(O)C(=O)C=C(O)C1=O` [Embelin] + COc1cc2c(Oc3ccc(NC(=O)C4(C(=O)Nc5ccc(F)cc5)CC4)cc3F)ccnc2cc1OCCCN1CCOCC1 [Foretinib] (partner 0.25 µM) returned a relative viability of 0.861.
`CCCCCCCCCCCC1=C(O)C(=O)C=C(O)C1=O` [Embelin] + CC(=O)Nc1cccc(-n2c(=O)n(C3CC3)c(=O)c3c(Nc4ccc(I)cc4F)n(C)c(=O)c(C)c32)c1 [Trametinib] (partner 0.02 µM): the relative viability came out at 0.542.
The same measure, in the same setting: the value for `CCCCCCCCCCCC1=C(O)C(=O)C=C(O)C1=O` [Embelin] + CS(=O)(=O)N1CCN(Cc2cc3nc(-c4cccc5[nH]ncc45)nc(N4CCOCC4)c3s2)CC1 [Pictilisib] (partner 1 µM) was 0.667; that for `CCCCCCCCCCCC1=C(O)C(=O)C=C(O)C1=O` [Embelin] + Cc1nc(NC(=O)N2CCC[C@H]2C(N)=O)sc1-c1ccnc(C(C)(C)C(F)(F)F)c1 [Alpelisib] (partner 2 µM) was 1.31.

The same test, now with this note: first compound 2.53 µM.
Compound `CCCCCCCCCCCC1=C(O)C(=O)C=C(O)C1=O` [Embelin] + COc1cc2c(Oc3ccc(NC(=O)C4(C(=O)Nc5ccc(F)cc5)CC4)cc3F)ccnc2cc1OCCCN1CCOCC1 [Foretinib] (partner 0.25 µM) had a relative viability of 1.04.
In the case of `CCCCCCCCCCCC1=C(O)C(=O)C=C(O)C1=O` [Embelin] + CC(=O)Nc1cccc(-n2c(=O)n(C3CC3)c(=O)c3c(Nc4ccc(I)cc4F)n(C)c(=O)c(C)c32)c1 [Trametinib] (partner 0.02 µM), the relative viability was determined as 0.691.
The compound `CCCCCCCCCCCC1=C(O)C(=O)C=C(O)C1=O` [Embelin] + CS(=O)(=O)N1CCN(Cc2cc3nc(-c4cccc5[nH]ncc45)nc(N4CCOCC4)c3s2)CC1 [Pictilisib] (partner 1 µM) registered a relative viability of 0.678.
On the same count and under the same terms, the value for `CCCCCCCCCCCC1=C(O)C(=O)C=C(O)C1=O` [Embelin] + Cc1nc(NC(=O)N2CCC[C@H]2C(N)=O)sc1-c1ccnc(C(C)(C)C(F)(F)F)c1 [Alpelisib] (partner 2 µM) was 1.37.

Still in this test, the particulars now being: first compound 8 µM.
Compound `CCCCCCCCCCCC1=C(O)C(=O)C=C(O)C1=O` [Embelin] + COc1cc2c(Oc3ccc(NC(=O)C4(C(=O)Nc5ccc(F)cc5)CC4)cc3F)ccnc2cc1OCCCN1CCOCC1 [Foretinib] (partner 0.25 µM) displayed a relative viability of 0.888.
Still for that read-out and setting: the value for `CCCCCCCCCCCC1=C(O)C(=O)C=C(O)C1=O` [Embelin] + CC(=O)Nc1cccc(-n2c(=O)n(C3CC3)c(=O)c3c(Nc4ccc(I)cc4F)n(C)c(=O)c(C)c32)c1 [Trametinib] (partner 0.02 µM) was 0.39.
